Laboratory results from patent publication US20130296230A1, “METHOD FOR TREATING MALARIA, METHOD FOR KILLING MALARIA PARASITE, AND USE OF THE METHODS” (RIKEN, priority 2010, published 2013).
Like-named read-outs stand apart in the source and are kept apart here.

Experiments:
[1] = system: falciparum malaria parasites (P. falciparum); test: Intracellular fluorescence Ca2+ imaging of P. falciparum in intraerythrocytic stage; type: cell-based
Description: Next, 1 ml of the culture of the erythrocytes that had been thus diluted was collected by centrifugation (at 1,000 g for five minutes at room temperature), then resuspended in 350 μL BSA(−) culture medium constituted by the same constituents as the BSA(−) culture medium mentioned above (hereinafter referred to as “erythrocyte resuspension (1)”).
Erythrocytes were then washed once with 10 mL BSA(−) culture medium (1000 g for 5 minutes at room temperature) and resuspended in 600 μL BSA(+) culture medium (the BSA(−) culture medium supplemented with 0.5 weight % Albumax 1 and 25 μg/mL gentamicin (Sigma)) (hereinafter referred to as “erythrocyte resuspension (2)”). Next, 100 μL of the erythrocyte resuspension (2) was inoculated in a 35 mm glass-bottomed dish (MatTek Corp.) coated with 0.1 mg/ml poly-L-lysine. After 30 minutes of incubation in an O2/CO2 incubator, suspended erythrocytes were gently washed with BSA(+) culture medium before collecting.
The glass-bottomed dish was then placed in a culture chamber in which an O2 level, a CO2 level, temperature, and humidity were maintained under conditions (O2 level: 5%, CO2 level, 5%, temperature: 37° C.) used for conventional in vitro culturing of malaria parasites.
The acquisition of the transparent images and acquisition of light emissions were carried out by the true spectral detection method developed by Leica Microsystems. The imaging was carried out at intervals of every 5 to 15 seconds for duration of 300 to 600 seconds. A fluorescence intensity of fluo4-AM was calculated by subtraction of background fluorescence (F) and normalized to minimum fluorescence during the imaging period (Fmin).

malaria parasites = details: cited from earlier work
[2] = system: falciparum malaria parasite FCR-3 strain
Excerpt: (§1) Giemsa-stained smears were observed by Nikon Eclipse 80i microscope (Nikon), photographed by Nikon DXM 1200F camera (Nikon) and uploaded on a personal computer by digital photograph manager software (ACT-1; Nikon). In order to measure falciparum malaria parasite size, 50 falciparum malaria parasites were randomly selected, and areas containing these falciparum malaria parasites were manually delineated with lines on a screen. Area, perimeter, and maximum diameter of the falciparum malaria parasites cells was calculated by WinROOF software package Ver.5.8.1 (Mitani, Japan).
In order to quantitatively examine the effect of 2-APB on intraerythrocytic falciparum malaria parasite development, the area, perimeter and maximum diameter (hereinafter referred to collectively as “three parameters”) of falciparum malaria parasite cells were analyzed at 15 hours, 30 hours, and 40 hours from the start of the synchronized culturing. At 40 hours from the start of the synchronized culturing, only schizonts were analyzed.
In order to investigate an effect of 2-APB in the ring form stage, 100 μM 2-APB was added to falciparum malaria parasites that were being synchronized-cultured, and sizes of the falciparum malaria parasites were measured after 10 hours of culturing and after 20 hours of culturing. In some assays (“removed at 10 h” in (f) of FIG. 6), 100 μM 2-APB was added at start of the culturing and removed after 10 hours of culturing, and then sizes of falciparum malaria parasites were measured after 20 hours of culturing (see (f) of FIG. 6). […] Fifty falciparum malaria parasites were measured in each experimental group. P values compared with the controls (in the presence of DMSO) are given in each panel (two-tailed unpaired t test with Welch's correction).

[3] = system: falciparum malaria parasite FCR-3 strain; test: Assay for examining inhibition of development of P. falciparum (synchronized culture, Giemsa smear parasitaemia count); type: cell-based
Description: An FCR-3 strain of falciparum malaria parasite (P. falciparum) (reference document: Hatabu T, Takada T, Taguchi N, Suzuki M, Sato K, Kano S. (2005) Antimicrob Agents Chemother. 2005 February; 49(2):493-6.) was cultured in RPMI culture medium (Invitrogen/GIBCO) in accordance with the method of Trager and Jensen (reference document: Trager, W. 86 Jensen, J. B. (1976) Science 193, 673-675.). The FCR-3 strain is a strain which takes an approximately 40 hours to undergo one development/proliferation cycle of invasion of merozoites into erythrocytes, formation of ring forms, formation of trophozoites, formation of schizonts, release of mature merozoites, and invasion of the mature merozoites into erythrocytes. To the RPMI culture medium, 0.5 weight % AlubumaxI (Invitrogen), 25 mM HEPES, 24 mM sodium hydrogen carbonate, 0.5 g/L L-glutamine, 50 mg/L hypoxanthine, 25 μg/ml gentamicin (Sigma), and human erythrocytes with 5% hematocrit (provided by a healthy volunteer) were added. Further, synchronized culturing was carried out with the use of 5 weight % d-sorbitol (reference document: Lambros, C. 86 Vanderberg, J. P. (1979) J. Parasitol. 65, 418-420.) to synchronize developments of P. falciparum.
Effects of 2-APB (2-aminoethyl diphenylborinate) and LZ (luzindole) on intraerythrocytic falciparum malaria parasite development were examined with the use of a culture of falciparum malaria parasites in a ring form stage with initial parasitaemia of approximately 1%.
First, 500 μl of the culture was injected into each well of a tissue culture plate (24-well flat-bottom plate, Corning). 2-APB and LZ were dissolved in dimethyl sulfoxide (DMSO, HYBRI-MAX (Registered Trademark), Sigma) to be 10 mM and 100 mM in concentration, respectively. In this way, stock solutions of these compounds were prepared. The stock solutions were diluted with the RPMI culture medium, and were added to each well of the tissue culture plate in an amount to be a predetermined final concentration in the well. Further, DMSO was diluted with the PPMI culture medium and was added to each well of a tissue culture plate in an amount to be a predetermined final concentration in the well, and was used as a control. Culturing was carried out in each well for a predetermined period of time.
After elapse of the predetermined period of time, a drop of the erythrocytes-containing culture in each well of the tissue culture plate was smeared on a glass slide and giemsa-stained. The number of erythrocytes infected with falciparum malaria parasites out of 2000 erythrocytes was counted so as to determine parasitaemia.

[4] = system: chloroquine-resistant strain K1 of falciparum malaria parasites; details: 100 μM 2-APB; 24 hours
Excerpt: as §1
(§2) An effect of 2-APB on intraerythrocytic development of a chloroquine-resistant strain K1 of falciparum malaria parasites (P. falciparum) was examined by synchronized culturing malaria parasites in ring forms with initial parasitaemia of approximately 2%. The culturing was terminated at 24 hours, 48 hours, and 72 hours from the start of the synchronized culturing, and thin smears of erythrocytes were prepared for falciparum malaria parasite counting. Culture medium with 100 μM DMSO or 100 μM 2-APB was replaced at 24 hours and 48 hours from the start of the synchronized culturing. […] Parasitaemia of ring forms (Rf), trophozoites (T), early schizonts (ES) and late schizonts (LS) is shown as mean±S.D. of 3 wells. Stages with parasitaemia of less than 0.1% are not shown.

[5] = system: falciparum malaria parasites
Description: Specimens to be subjected to the electron microscopy were fixed for approximately 2 hours in 2.5% (V/V) glutaraldehyde buffered with 0.1 M phosphate buffer (pH 7.4, at 4° C.). The specimens were then post-fixed in 1% (w/V) osmium tetroxide for 1 hour.

[6] = system: falciparum malaria parasites; details: cultured 30 hours in presence of 2-APB
Description: ER-Tracker Red (Invitrogen). […] ER-Tracker Red was then added to the erythrocyte suspension so as to be 0.5 μM in final concentration, and the mixture was shaken at 200 rpm for 30 minutes at 37° C.

[7] = system: chloroquine-resistant strain K1 of falciparum malaria parasites (P. falciparum)
Description: as §2

NCCOB(c1ccccc1)c1ccccc1 [2-APB, 2-aminoethyl diphenylborinate]
Spontaneous Ca2+ oscillations ([1]; 100 μM 2-APB, early ring form and trophozoite stages): almost completely blocked | Ca2+ fluctuations ([1]; 100 μM 2-APB, late ring form, schizont and merozoite stages): no notable effect | Amplitude of periodic Ca2+ fluctuations (mean max minus mean min F/Fmin) ([1]; 2-APB, late ring form, schizont, merozoite stages, quantitative analysis): statistically significant effect of 2-APB was observed only in the merozoite stage | Increase in concentration of calcium ion in cytoplasm brought about by melatonin (malaria parasites; 2-APB administered to malaria parasites): suppressed | Promotion of calcium discharge by 2-APB itself (malaria parasites; malaria parasites): no effect | Area, perimeter and maximum diameter of parasite cells ([2]; 100 μM 2-APB present for 10 hours and 20 hours vs DMSO): significantly smaller | Area, perimeter and maximum diameter of parasite cells ([2]; 100 μM 2-APB removed at 10 hours, measured at 20 hours vs DMSO): no statistically significant difference | Area, perimeter and maximum diameter of parasite cells ([2]; 100 μM 2-APB vs DMSO, 15, 30 and 40 hours): significant decreases | Intraerythrocytic development of falciparum malaria parasites ([3]; 100 μM 2-APB vs DMSO controls, 20, 30, 40 hours of synchronized culturing): clearly delayed | Ring form parasitaemia at 45 hours ([3]; 2-APB added at late schizont stage (28 hours)): significantly decreased | Parasitaemia of ring forms at 40 hours ([3]; 2-APB added between trophozoite and early schizont stages (21 hours), compared with the removal cases): greater effect | Number of merozoites formed in each schizont ([3]; 2-APB vs DMSO, 40 hours): significantly smaller | Erythrocyte parasitaemia ([3]; 2-APB, medium replaced at 40 h, 70 hours from start of synchronized culturing): substantially zero | Developmental stage reached ([3]; 2-APB, 20 hours from start of synchronized culturing): remained at the trophozoite stage | Parasite morphology ([3]; cultured in presence of 2-APB, up to 40 hours): abnormal morphology | Parasite development in 2-APB-pretreated erythrocytes ([3]; erythrocytes treated with 2-APB only in advance, 20 and 40 hours): could develop normally | Inhibitory effect by area, perimeter and maximum diameter of parasite cells [4]: confirmed | Ultrafine structure (electron micrographs) ([5]; 100 μM 2-APB, 30 hours): highly dense chromatin masses in the nucleus and highly dense degeneration | Nuclear envelope and endoplasmic reticulum in electron micrographs ([5]; cultured in presence of 2-APB): dilated nuclear envelope and endoplasmic reticulum | Endoplasmic reticulum tracker signals [6]: became broad and extended to the cytosol | Parasitaemia of trophozoites ([7]; 100 μM 2-APB, 24 hours): tendency towards decreasing parasitaemia | Intraerythrocytic malaria parasite development ([7]; 2-APB vs DMSO, 48 hours): delayed | Number of erythrocytes infected with falciparum malaria parasite ([7]; 2-APB vs DMSO, 72 hours): much lesser | Effect of 2-APB on the K-1 strain ([7]; 24 hour from start of assay): relatively weak

C/C=C/[C@H]1O[C@@](O)([C@@H](C)[C@H](O)[C@H](C)[C@H]2OC(=O)/C(OC)=C/C(C)=C/[C@@H](C)[C@@H](O)[C@@H](CC)[C@@H](O)[C@H](C)C/C(C)=C/C=C/[C@@H]2OC)C[C@@H](O[C@H]2C[C@@H](O)[C@H](OC(N)=O)[C@@H](C)O2)[C@@H]1C [CMA, concanamycin A]
Ca2+ oscillations ([1]; pre-treatment with 100 nM CMA, early ring forms and trophozoites): no effect

CC(=O)NCCc1c(Cc2ccccc2)[nH]c2ccccc12 [LZ, luzindole]
Intraerythrocytic falciparum malaria parasite development ([3]; 250 μM LZ, 20, 40, 70 hours): clearly inhibited | Developmental stage reached ([3]; 250 μM LZ, 20 hours): remained in a transition stage from ring forms to early trophozoites | Developmental stage reached ([3]; 250 μM LZ, 40 hours): most of the falciparum malaria parasites remained in the transition stage from ring forms to early trophozoites | Developmental stage reached ([3]; 250 μM LZ, 70 hours): remained in the transition stage from ring forms to early trophozoites even at 70 hours

C/C=C(/C)C(=O)O[C@H]1C(C)=C2[C@H]([C@@H]1OC(=O)CCCCCCC)[C@@](C)(OC(C)=O)C[C@H](OC(=O)CCC)[C@@]1(O)[C@H]2OC(=O)[C@@]1(C)O [Tg, thapsigargin]
Ca2+ oscillations ([1]; pre-treatment with 2 μM Tg for 30 minutes, early ring forms and trophozoites): blocked

COc1ccc2c(c1)CC[C@@H]1[C@@H]2CC[C@]2(C)[C@@H](NCCCCCCN3C(=O)C=CC3=O)CC[C@@H]12 [U73122]
Ca2+ oscillations ([1]; 5 minutes pre-treatment with 10 μM U73122, early ring form and trophozoite stages): almost completely blocked
